Assay results published in US20090214654A1, “TREATMENT OF ANEURYSM WITH APPLICATION OF CONNECTIVE TISSUE STABILIZATION AGENT IN COMBINATION WITH A DELIVERY VEHICLE” (priority 2008, published 2009).
Read-outs that look alike come from different tables or passages of the source.

Assays:
[1] = system: aneurysmal aortas of rats; assay: CaCl2 abdominal aortic aneurysm progression model, PGG applied to aneurysmal aorta at day 28; assay type: in vivo, rat; details: PGG group, 11 of 11
Method: Using the same perivascular CaCl2 aortic injury model described earlier, the ability of PGG to halt the progression of growing aneurysms was evaluated. By applying PGG to healthy abdominal aorta immediately before the CaCl2-based aneurysm induction, the previously mentioned in vivo experiment essentially evaluated the effect of PGG on aneurysm formation. However, in order to create a more clinically relevant scenario, PGG was also applied to abdominal aortas of rats which were aneurysmal to investigate PGG's ability to hinder or halt aneurysm progression. In order to do this, rat aortas were treated with calcium chloride, the animals were closed, and AAA was allowed to develop for 28 days. At this time point, the aneurysmal aortas were exposed by a second surgery, and PGG was applied perivascularly using gauze. As a control, saline was applied by the same means to the remaining aneurysmal aortas. AAA progression was followed for another 28 days in both groups. A progressive diameter increase, reaching a mean 47.1±11% increase at 56 days, was measured in the control group (n=11) and the results were illustrated in FIG. 13.

[2] = system: abdominal aortic aneurysms in rats; assay type: in vivo, rat; details: for external aortic diameter: PGG group
Method: Pelivascular application of calcium chloride (CaCl2) to the infrarenal abdominal aorta of rodents is an accepted rat aneurysm model. It involves exposure of the abdominal aorta through a midline incision, using gauze to apply CaCl2 solution directly onto the aorta for 15 minutes, followed by surgical closure. Using this aneurysm model, we evaluated the effect of a single PGG application on development of abdominal aortic aneurysms in rats. For this study, we exposed the abdominal aorta in adult rats (n=12), measured the aorta diameter using digital photography and applied a 0.03% PGG solution in saline for 15 minutes using soaked gauze. After rinsing in saline, we induced aortic injury with the 15-minute application of 0.5 mol/L CaCl2 solution. Control rats (n=12) were treated with saline for 15 minutes, rinsed and then treated with 0.5 mol/L CaCl2 solution for 15 minutes. After 28 days, we re-exposed the abdominal aorta under general anesthesia, measured the external diameter, then euthanized the rats and collected the aorta for analysis. […] Along with aortic dilatation, perivascular application of CaCl2 induced major changes in vascular elastin content and integrity as shown by analysis of desmosine, an amino acid which is specific to elastin, as well as histology, all shown in FIG. 12.

porcine carotid arteries = assay: In vitro elastase digestion of treated carotid arteries; details: treated 20 minutes; 0.6% (w/v) Glut, 0.15% (w/v) PGG, alone or as cocktail; elastase 24 hrs, 37°C
Method: Tissue resistance to elastase degradation after treatment with various reagents is studied. Specifically, porcine carotid arteries were treated with saline (control, for 20 minutes), Glutaraldehyde (Glut) (for 20 minutes), PGG (for 20 minutes), or a combination of the two (Glut+PGG for 20 minutes, or Glut for 10 minutes followed by a separate incubation with PGG for 10 minutes). Concentrations of the reagents used were 0.6% (w/v) for Glut, 0.15% (w/v) for PGG and 9 g/L for physiological saline.
The treated tissue was then exposed to an in vitro elastase digestion assay to subject the treated tissue to digestion for 24 hrs. All experiments were conducted at 37° C. Because the values shown are percentage of digestion, the lower the value, the better the reagent used preformed in resisting elastase degradation. […] It should be noted that the digestion model used in this experiment is a very accelerated and aggressive digestion model.

porcine aortic wall = assay: Collagenase digestion of treated aortic wall; details: type I collagenase 150 U/mL, 37°C, 24 hours
Method: Tissue resistance to collagenase degradation after treatment with various reagents is discussed. Specifically, samples of porcine aortic wall were either left untreated (fresh) or treated with Glut alone or Glut followed by tannic acid (TA). Glut treatment was performed with 0.6% (w/v) Glut for 1 day, and then 0.2% (w/v) Glut for 7 days at room temperature; Glut/TA treatment was performed with 0.6% (w/v) Glut for 1 day, and then 0.2% (w/v) Glut for 7 days at room temperature followed by 0.15% (w/v) TA for 4 days at 37° C. The treated samples were rinsed 3 times (1 hour each) in 100 mL water, and lyophilized to record dry weight. Samples with the amount of 15 to 25 mg dry weight were immersed in 1.2 mL of type I collagenase (150 U/mL) dissolved in 50 mM Tris buffer, 10 mM CaCl2, pH 7.4, and incubated at 37° C. with orbital shaking at 650 rpm for 24 hours. Following this exposure to collagenase, samples were centrifuged (10000 rpm, 10 minutes, 4° C.), individually rinsed three times in 1 mL water, lyophilized to obtain dry weight after collagenase, and the percent of digested tissue was calculated.

[3] = system: pure elastin strips obtained from porcine aorta; assay: Tannic acid binding to pure aortic elastin (Folin-Denis method); details: incubation up to 24 hours
Method: In order to determine kinetics of tannin binding to elastin, pure elastin strips obtained from porcine aorta were incubated with tannic acid (TA) for up to 24 hours. The concentration of TA in solution was assayed with the Folin-Denis method. […] All data points between 0-6 hrs are statistically different with p<0.05. The bottom diagram of FIG. 6 is a representative schematic diagram of interactions between TA and elastin. The hydrophobic domains (2, black segments) are areas in the elastin molecule that are susceptible to elastase cleavage. TA and PGG molecules (4, round structures), with an affinity for these hydrophobic areas, likely bind to these regions within elastin molecules, and establish multiple hydrogen bonds (5, dashed lines) between their hydroxyl moieties and regions of neighboring elastin molecules, resulting in improved elastin stabilization. Desmosine crosslinks (3, X) within the hydrophilic regions (1) of elastin molecules.

fresh aorta = assay: Resistance of treated fresh aorta to elastase digestion; details: 0.3% TA or 0.15% PGG (equimolar); accelerated digestion
Method: Resistance to elastase digestion was tested using fresh, untreated aorta and aorta treated with 0.3% TA or 0.15% PGG (equimolar concentrations). […] The differences between digestive values in TA and PGG samples were not significant (p>0.05). This is an accelerated digestion study, where high concentrations of enzyme were used. Such high enzyme activities are not expected to occur in vivo.

[4] = system: pure elastin obtained from porcine aorta; assay: Elastase digestion of TA-treated pure aortic elastin (mass loss, histology); assay type: biochemical
Method: To investigate the potential of tannins as elastin stabilizing reagents, pure elastin obtained from porcine aorta was treated with tannic acid (TA) and the resistance of the treated porcine aorta to elastase was tested. Porcine aorta was chosen because large quantities of fresh tissue were easily obtainable. […] Purified elastin from porcine aorta was obtained using sodium hydroxide treatment followed by collagenase digestion. The smooth muscle cells, collagen and ground matrix are absent from purified aortic elastin. […] Elastase completely digested pure elastin strips, while addition of a 0.3% TA pretreatment step increased stability towards enzymatic digestion by almost 50%, as evaluated by mass loss shown in the graph at the left of FIG. 7 (p<0.05, n=6). Gravimetric data were further confirmed by histology and shown in FIG. 7A-D. Since histological analysis of elastase-digested elastin control was not possible at 48 hours due to complete (˜100%) degradation, we exposed pure elastin to elastase for only 1.5 hours, an interval which yields about 50% digestion and mass loss.

In the case of `O=C(OC[C@H]1O[C@@H](OC(=O)c2cc(O)c(O)c(O)c2)[C@H](OC(=O)c2cc(O)c(O)c(O)c2)[C@@H](OC(=O)c2cc(O)c(O)c(O)c2)[C@@H]1OC(=O)c1cc(O)c(O)c(O)c1)c1cc(O)c(O)c(O)c1` [PGG, penta-galloylglucose], the “aortas that maintained the same diameter or decreased at 56 days compared with 28 days” value [1] is reported as 100%, the “increase in aortic diameter after 28 days” value ([2]; 0.03% PGG in saline 15 minutes by soaked gauze before 0.5 mol/L CaCl2, day 28 vs day 0) is reported as 8±7% and the “loss of desmosine (elastin content) vs non-surgery control aorta” value ([2]; 28 days after injury) is reported as “less than 15%”. For the same molecule, the external aortic diameter ([2]; 28 days) was 1.676±0.097 mm, the external aortic diameter ([2]; day 0) was 1.564±0.064 mm and the “time for which in vivo binding of PGG to aortic tissue is relatively stable” value ([2]; rat, in vivo) was ≥ 28 days. For the same molecule, the “PGG content of explanted aorta” value ([2]; rat, in vivo, 0 days) was 1.8±0.6 μg PGG/mg dry tissue and the “PGG content of explanted aorta” value ([2]; rat, in vivo, 28 days) was 1.2±0.4 μg PGG/mg dry tissue.
With `O=CCCCC=O` [Glut, Glutaraldehyde] the “resistance of tissue to elastase degradation (percentage digestion) vs saline” value (porcine carotid arteries) was “slightly improved” and the “percentage of sample digested by collagenase (mass loss)” value (porcine aortic wall) was “over 20%”.
In the case of `O=C(OC[C@H]1O[C@@H](OC(=O)c2cc(O)c(O)c(OC(=O)c3cc(O)c(O)c(O)c3)c2)[C@H](OC(=O)c2cc(O)c(O)c(OC(=O)c3cc(O)c(O)c(O)c3)c2)[C@@H](OC(=O)c2cc(O)c(O)c(OC(=O)c3cc(O)c(O)c(O)c3)c2)[C@@H]1OC(=O)c1cc(O)c(O)c(OC(=O)c2cc(O)c(O)c(O)c2)c1)c1cc(O)c(O)c(OC(=O)c2cc(O)c(O)c(O)c2)c1` [TA, tannic acid], the “TA binding kinetics normalized to dry weight of pure elastin strips” value [3] is reported as “rapid uptake”, the “resistance of aorta to elastase (digestion values vs untreated fresh aorta)” value (fresh aorta) is reported as “dramatically increased resistance” and the “increase in stability towards enzymatic digestion, evaluated by mass loss” value ([4]; 0.3% TA pretreatment, elastase, n=6) is reported as “about 50%”. For the same molecule, the “histology of aortic elastin structure after elastase treatment” value ([4]; TA-stabilized elastin, elastase for up to 48 hours) was “remarkably preserved”.
